Measurements taken from US20250382296A1, “NITROGEN-CONTAINING FUSED THREE RING PRMT5 INHIBITOR, AND PREPARATION METHOD THEREFOR AND PHARMACEUTICAL USE THEREOF” (Abbisko Therapeutics Co., Ltd., priority 2022, published 2025).

How the values were obtained:
[1] = tested on: HCT 116 MTAP-knockout cells; assay: Inhibition of proliferation of HCT116 MTAP-knockout cells (CellTiter-Glo, 6 days); format: cell-based, human; conditions: for IC50: Homo sapiens, HCT-116, 144 h, proliferation inhibition, HCT116 MTAP-knockout, 6 days, CellTiter-Glo; for Selectivity: IC50 HCT116 wild-type cells / IC50 HCT116 MTAP-knockout cells
Method: (§1) 1. HCT 116 MTAP-knockout cells and HCT 116 wild-type MTAP cells were plated in 96-well flat-bottom plates and cultured overnight at 37° C. and […] in McCoy's 5A medium containing 10% fetal bovine serum+1% penicillin-streptomycin.
(§2) 2. The next day, compounds were each dissolved in DMSO, diluted successively with DMSO and medium and then transferred to cell plates; the final concentration of each compound was 10 μM, 4-fold dilution was performed to obtain 9 concentration points, and a DMSO control was provided.
(§3) 3. Cells not treated with compound were subjected to CellTiter-Glo Luminescent Cell Viability Assay (Promega) to detect the cell viability, and reference was made to the kit instructions for the operation; the plates were then placed on an EnVision Multilabel Reader to detect luminescence signals.
(§4) 4. Meanwhile, the cell plates containing cells treated with compounds were cultured continuously at 37° C. and […] CO2 for 6 days.
(§5) 5. Then, the cell viability was also detected by CellTiter-Glo.
(§6) 6. Finally, dose response curves were plotted using the four parameter dose response curve module of GraphPad Prism v 9.2.0 software and proliferation inhibition IC50 (unit: nM) was calculated.

[2] = tested on: HCT 116 wild-type MTAP cells; assay: Inhibition of proliferation of HCT116 wild-type MTAP cells (CellTiter-Glo, 6 days); format: cell-based; conditions: Homo sapiens, HCT-116, 144 h
Method: as §1, §2, §3, §4, §5, §6

SMILES | IC50 [1] [nM] | IC50 [2] [nM] | Selectivity [1]
CN(Cc1ccc(C(F)(F)F)cn1)C(=O)c1ccc2nc(N)c3cncn3c2c1 [Example 146, 4-amino-N-methyl-N-((5-(trifluoromethyl)pyridin-2-yl)methyl)imidazo[1,5-a]quinoxaline-8-carboxamide] | 224 | > 10000 | >44.6
Nc1nc2ccc(C(=O)N(Cc3ccc(C(F)(F)F)cn3)C3CCC3)cc2n2cncc12 [Example 147, 4-amino-N-cyclobutyl-N-((5-(trifluoromethyl)pyridin-2-yl)methyl)imidazo[1,5-a]quinoxaline-8-carboxamide] | 115 | 4990 | 43.4
Nc1nc2ccc(C(=O)N(Cc3ccc(C(F)(F)F)cn3)CC(F)(F)F)cc2n2cncc12 [Example 148, 4-amino-N-(2,2,2-trifluoroethyl)-N-((5-(trifluoromethyl)pyridin-2-yl)methyl)imidazo[1,5-a]quinoxaline-8-carboxamide] | 202 | > 10000 | >49.5
Cn1cc(N(Cc2ccc(C(F)(F)F)cn2)C(=O)c2ccc3nc(N)c4cncn4c3c2)cn1 [Example 149, 4-amino-N-(1-methyl-1H-pyrazol-4-yl)-N-((5-(trifluoromethyl)pyridin-2-yl)methyl)imidazo[1,5-a]quinoxaline-8-carboxamide] | 50 | 7210 | 144.1
CCC(C1CC1)N(Cc1ccc(C(F)(F)F)cn1)C(=O)c1ccc2nc(N)c3cncn3c2c1 (stereo not drawn) [Example 154, 4-amino-N-(1-cyclopropylpropyl)-N-((5-(trifluoromethyl)pyridin-2-yl)methyl)imidazo[1,5-a]quinoxaline-8-carboxamide] | 22 | 406 | 18.5
Nc1nc2ccc(C(=O)N(Cc3ccc(C(F)(F)F)nn3)CC3CC3)cc2n2cncc12 [Example 156, 4-amino-N-(cyclopropylmethyl)-N-((6-(trifluoromethyl)pyridazin-3-yl)methyl)imidazo[1,5-a]quinoxaline-8-carboxamide] | 10 | 1610 | 160.7
Nc1nc2cc(F)c(C(=O)N(Cc3ccc(C(F)(F)F)cn3)CC3CC3)cc2n2cncc12 [Example 163, 4-amino-N-(cyclopropylmethyl)-7-fluoro-N-((5-(trifluoromethyl)pyridin-2-yl)methyl)imidazo[1,5-a]quinoxaline-8-carboxamide] | 6 | 330 | 55
Cc1cc2nc(N)c3cncn3c2cc1C(=O)N(Cc1ccc(C(F)(F)F)cn1)CC1CC1 [Example 164, 4-amino-N-(cyclopropylmethyl)-7-methyl-N-((5-(trifluoromethyl)pyridin-2-yl)methyl)imidazo[1,5-a]quinoxaline-8-carboxamide] | 8 | 706 | 88.3
Nc1nc2cc(Cl)c(C(=O)N(Cc3ccc(C(F)(F)F)cn3)CC3CC3)cc2n2cncc12 [Example 165, 4-amino-7-chloro-N-(cyclopropylmethyl)-N-((5-(trifluoromethyl)pyridin-2-yl)methyl)imidazo[1,5-a]quinoxaline-8-carboxamide] | 11 | 358 | 32.5
Cc1ncc2c(N)nc3ccc(C(=O)N(Cc4ccc(C(F)(F)F)cn4)CC4CC4)cc3n12 [Example 167, 4-amino-N-(cyclopropylmethyl)-1-methyl-N-((5-(trifluoromethyl)pyridin-2-yl)methyl)imidazo[1,5-a]quinoxaline-8-carboxamide] | 74 | 2710 | 36.6
Cc1ncc2c(N)nc3cc(F)c(C(=O)N(Cc4ccc(C(F)(F)F)cn4)CC4CC4)cc3n12 [Example 168, 4-amino-N-(cyclopropylmethyl)-7-fluoro-1-methyl-N-((5-(trifluoromethyl)pyridin-2-yl)methyl)imidazo[1,5-a]quinoxaline-8-carboxamide] | 111 | 7910 | 71.3
Cc1cc2nc(N)c3cnc(C)n3c2cc1C(=O)N(Cc1ccc(C(F)(F)F)cn1)CC1CC1 [Example 169, 4-amino-N-(cyclopropylmethyl)-1,7-dimethyl-N-((5-(trifluoromethyl)pyridin-2-yl)methyl)imidazo[1,5-a]quinoxaline-8-carboxamide] | 35 | 1880 | 53.6
CN(C(=O)c1ccc2nc(N)c3cncn3c2c1)C1COCc2cc(C(F)(F)F)ccc21 (stereo not drawn) [Example 179, 4-amino-N-methyl-N-(7-(trifluoromethyl)isochroman-4-yl)imidazo[1,5-a]quinoxaline-8-carboxamide] | 67 | 3720 | 55.5
Nc1nc2cc(Cl)c(C(=O)N(Cc3ccc(C(F)(F)F)nn3)CC3CC3)cc2n2cncc12 [Example 212, 4-amino-7-chloro-N-(cyclopropylmethyl)-N-((6-(trifluoromethyl)pyridazin-3-yl)methyl)imidazo[1,5-a]quinoxaline-8-carboxamide] | 8 | 383 | 47.9
Cc1cc2nc(N)c3cncn3c2cc1C(=O)N(Cc1ccc(C(F)(F)F)nn1)CC1CC1 [Example 213, 4-amino-N-(cyclopropylmethyl)-7-methyl-N-((6-(trifluoromethyl)pyridazin-3-yl)methyl)imidazo[1,5-a]quinoxaline-8-carboxamide] | 15 | 1320 | 87.9
CN(C(=O)c1ccc2nc(N)c3cncn3c2c1)C1COc2cc(-c3cnn(C)c3)ccc21 (stereo not drawn) [Example 214, 4-amino-N-methyl-N-(6-(1-methyl-1H-pyrazol-4-yl)-2,3-dihydrobenzofuran-3-yl)imidazo[1,5-a]quinoxaline-8-carboxamide] | 188 | > 10000 | >53.1
Nc1nc2cc(F)c(C(=O)N(Cc3ccc(C(F)(F)F)nn3)CC3CC3)cc2n2cncc12 [Example 215, 4-amino-N-(cyclopropylmethyl)-7-fluoro-N-((6-(trifluoromethyl)pyridazin-3-yl)methyl)imidazo[1,5-a]quinoxaline-8-carboxamide] | 8 | 314 | 39.3
Nc1nc2ccc(C(=O)N(c3cn[nH]c3)[C@@H]3COc4cc(C(F)(F)F)ccc43)cc2n2cncc12 [Example 216, (S)-4-amino-N-(1H-pyrazol-4-yl)-N-(6-(trifluoromethyl)-2,3-dihydrobenzofuran-3-yl)imidazo[1,5-a]quinoxaline-8-carboxamide] | 11 | 1080 | 98.3

The next lines start with results.

IC50 [1] [nM] | IC50 [2] [nM] | SMILES | Selectivity [1]
330 | 5100 | Nc1nc2ccc(C(=O)N(CC3CC3)[C@@H]3COc4nc(C(F)(F)F)ccc43)cc2n2cncc12 [Example 181a, (S)-4-amino-N-(cyclopropylmethyl)-N-(6-(trifluoromethyl)-2,3-dihydrofuro[2,3-b]pyridin-3-yl)imidazo[1,5-a]quinoxaline-8-carboxamide] | 15.5
41 | 2240 | Cc1cc2nc(N)c3cncn3c2cc1C(=O)N(c1cnn(C)c1)[C@@H]1COc2nc(C(F)(F)F)ccc21 [Example 206a, (S)-4-amino-7-methyl-N-(1-methyl-1H-pyrazol-4-yl)-N-(6-(trifluoromethyl)-2,3-dihydrofuro[2,3-b]pyridin-3-yl)imidazo[1,5-a]quinoxaline-8-carboxamide] | 54.5
2 | 70 | Cc1cc2nc(N)c3cncn3c2cc1C(=O)N(c1cnn(C)c1)[C@@H]1COc2cc(C(F)(F)F)ccc21 [Example 207a, (S)-4-amino-7-methyl-N-(1-methyl-1H-pyrazol-4-yl)-N-(6-(trifluoromethyl)-2,3-dihydrobenzofuran-3-yl)imidazo[1,5-a]quinoxaline-8-carboxamide] | 35
5 | 523 | CCn1cc(N(C(=O)c2ccc3nc(N)c4cncn4c3c2)[C@@H]2COc3cc(C(F)(F)F)ccc32)cn1 [Example 208a, (S)-4-amino-N-(1-ethyl-1H-pyrazol-4-yl)-N-(6-(trifluoromethyl)-2,3-dihydrobenzofuran-3-yl)imidazo[1,5-a]quinoxaline-8-carboxamide] | 104.6
1 | 59 | Cn1cc(N(C(=O)c2cc3c(cc2Cl)nc(N)c2cncn23)[C@@H]2COc3cc(C(F)(F)F)ccc32)cn1 [Example 210a, (S)-4-amino-7-chloro-N-(1-methyl-1H-pyrazol-4-yl)-N-(6-(trifluoromethyl)-2,3-dihydrobenzofuran-3-yl)imidazo[1,5-a]quinoxaline-8-carboxamide] | 59
19 | 1330 | Cn1cc(N(C(=O)c2cc3c(cc2Cl)nc(N)c2cncn23)[C@@H]2COc3nc(C(F)(F)F)ccc32)cn1 [Example 211a, (S)-4-amino-7-chloro-N-(1-methyl-1H-pyrazol-4-yl)-N-(6-(trifluoromethyl)-2,3-dihydrofuro[2,3-b]pyridin-3-yl)imidazo[1,5-a]quinoxaline-8-carboxamide] | 69.9
